# Where “and” joins values, the source holds several entries; their conditions need not be identical. Equal values may be shown once. Entries after “also recorded” stand apart in the source; their conditions may differ.
# What was measured:
# [1] = test system: hippocampal slices treated with Aβ42; assay: LTP in hippocampal slices treated with 200 nM oligomeric Aβ42; format: cell-based, mouse; conditions: YF012403 50 nM for 10 min prior to the θ-burst
# Protocol: Following cutting hippocampal slices were transferred to a recording chamber where they were maintained at 29° C. and perfused with artificial cerebrospinal fluid (ACSF) continuously bubbled with 95% O2 and 5% CO2. The ACSF composition in mM was: 124.0 NaCl, 4.4 KCl, 1.0 Na2HPO4, 25.0 NaHCO3, 2.0 CaCl2, 2.0 MgSO4, 10.0 glucose. CA1 fEPSPs were recorded by placing both the stimulating and the recording electrodes in CA1 stratum radiatum. BST was assayed either by plotting the stimulus voltages against slopes of fEPSP, or by plotting the peak amplitude of the fiber volley against the slope of the fEPSP. A 15 min baseline was recorded every min at an intensity that evokes a response ˜35% of the maximum evoked response. LTP was induced using q-burst stimulation (4 pulses at 100 Hz, with the bursts repeated at 5 Hz and each tetanus including 3 ten-burst trains separated by 15 sec). Responses were recorded for 1 hr after tetanization and measured as field-excitatory-post-synaptic potential (fEPSP) slope expressed as percentage of baseline.
# In these experiments YF012403 (the cyclopropyl lead compound) was directly given to the hippocampal slices through the perfusion system for 10 min prior to the theta burst. Aβ42 was given for 20 minutes prior to the theta burst. Oligomeric Aβ42 was prepared as described previously (Stine et al., 2003). […]
# [2] = test system: APP processing (APP, sAPPα, sAPPβ, CT83, CT99); assay: Western blot of APP full length and fragments in brain; format: in vivo, mouse; design: concentration or dose not given beside the values
# Text: Aβ originates from APP through a proteolytic process catalyzed by secretases, producing different fragments with characteristic functions^A24. APP is first cleaved by α and β secretases that generate soluble extracellular fragments, named α-APPs and β-APPs, and three forms of carboxyterminal fragments (CTFs): C83 by α-secretase cleavage, C89 and C99 by β-secretase cleavage^A25, A26. CTFs are substrates of γ-secretase generating C-terminal peptides of 57-58 residues (APP intracellular domain, AID) and Aβ fragments from CTFβ^A27. To assess whether the decrease in Aβ levels was related to changes in APP processing [see FIG. 20], western blot analyses on mice brain cortex for full length APP and its fragments was performed.
# APP levels were found unchanged also in 7-10 months old transgenic mice (FIGS. 7B-7C). They have been treated with daily injections of sildenafil for 3 weeks at age of 3 months. […] Moreover, a decrease in sAPPβ in transgenic mice treated with sildenafil was observed (FIGS. 7B, 7E) showing a down-regulation of BACE activity. […] Thus, without being bound by theory, the reduction in Aβ levels by sildenafil is due to an action of the inhibitor onto α- and β-secretase activity.
# Mice brains were homogenized in buffer (20 mM tris base, 1 mM EDTA, 1 mM EGTA, 250 mM sucrose) containing protease inhibitors. Part of the homogenates was ultracentrifugated at 100,000 g for 1 h and the supernatants were used to analyze the sAPPα and the sAPPβ fragments. The protein concentration in each homogenate was quantified to analyze the equal amounts of protein from each sample. Samples were loaded into the wells of a 4-12% Bis-Tris precast gel, electrophoresed and transferred according to manufacturer's protocol. After Ponceau S staining, membranes were washed and incubated in 5% non-fat milk powder in PBS for 1 h at room temperature. Then, they were incubated overnight at 4° C. with the following primary antibodies, diluted in goat serum 5% in PBS: mouse 22C11 for APP full length detection (1:4000, Sigma); mouse sAPPα and Swedish sAPPβ (1:4000 and 1:1000, IBL), rabbit AbD for CTFs (1:250, Zymed), mouse Tubulin as control (1:20.000, Sigma). After overnight incubation, membranes were washed 3 times in PBS for 30 minutes and incubated with goat anti-mouse or goat-anti-rabbit antibody, diluted in 5% non-fat milk powder in PBS (1:4000 and 1:2000). After 30 minutes washing in PBS, radiographic detection was performed after exposure to ECL (Pierce).
# [3] = test system: isolated rabbit corpus cavernosum; conditions: read-out: EC50, relaxant effect; cited from earlier work
# [4] = test system: CREB phosphorylation; format: cell-based, mouse
# [5] = humans; cited from earlier work
# [6] = 3-month-old APP/PS1 treated with sildenafil
# [7] = APP/PS1 at 7-10 months, sildenafil for 3 weeks at 3 months
SMILES,effect on LTP deficit in Aβ42-treated slices in words [1],"APP full length, % of control [2, 6] [%]","CT83, % of control [2, 6] [%]","CT99, % of control [2, 6] [%]","sAPPα, % of control [2, 6] [%]","sAPPβ, % of control [2, 6] [%]","APP full length, % of control [2, 7] [%]","CT83, % of control [2, 7] [%]","CT99, % of control [2, 7] [%]","sAPPα, % of control [2, 7] [%]","sAPPβ, % of control [2, 7] [%]",EC50 [3] [nM],"phospho-CREB immunofluorescence after tetanus, % of control [4]",in vivo half-life [5] [h]
"COc1ccc(CNc2c(CO)cnc3c(C4CC4)cc(C#N)cc23)cc1Cl [YF012403, 4-(3-chloro-4-methoxybenzylamino)-8-cyclopropyl-3-(hydroxymethyl)-quinoline-6-carbonitrile]",ameliorates the LTP deficit; also recorded: ameliorated; also recorded: reverses LTP impairment,–,–,–,–,–,–,–,–,–,–,–,–,–
"CCCc1nn(C)c2c(=O)[nH]c(-c3cc(S(=O)(=O)N4CCN(C)CC4)ccc3OCC)nc12 [sildenafil, 5-[2-ethoxy-5-(4-methyl-1-piperazinylsulphonyl)phenyl]-1-methyl-3-n-propyl-1,6-dihydro-7H-pyrazolo[4,3-d]pyrimidin-7-one]",–,125.75±4.44,74.5±6.73,95.25±5.66,86.25±5.02,43.25±3.90,107.4±3.88,82.75±6.78,87.2±7.63,153.65±11.95,25.6±2.83,8.7,162.58±17.09% and 163.54±13.52% and 163.6±15.14% and 151.73±12.24%,~4

# From patent publication US9974782B2, “Phosphodiesterase inhibitors and uses thereof” (THE TRUSTEES OF COLUMBIA UNIVERSITY IN THE CITY OF NEW YORK, priority 2008, dated 2018)
